Reference: ChEMBL document CHEMBL4808170, “Structure-Based Design of Potent and Orally Active Isoindolinone Inhibitors of MDM2-p53 Protein-Protein Interaction” (J Med Chem, 2021)

How the values were obtained:
[1] = Inhibition of MDM2/IP3 (unknown origin) protein-protein interaction expressed using TNT T7 coupled reticulocyte lysate system incubated for 90 mins by ELISA
[2] = test system: SJSA-1; assay: Antiproliferative activity against human SJSA-1 cells expressing wild type TP53 incubated for 72 hrs by Sulforhodamine B assay; format: functional
[3] = Antiproliferative activity against human SN40R2 cells derivative of SJSA-1 cells expressing mutant TP53 at 50 uM incubated for 72 hrs by Sulforhodamine B assay; format: functional
[4] = Lipophilicity, logD of compound at pH 7.4 by Chromatography; format: physicochemical; settings: buffer
[5] = Drug metabolism in mouse liver microsomes assessed as retention time of metabolite rac-1-(((2-(4-chlorobenzyl)-1-(4-chlorophenyl)-5-(2-hydroxypropan-2-yl)-3-oxoisoindolin-1-yl)oxy)methyl)cyclopropane-1-carboxylic acid at 10 uM by LC-MS analysis; format: ADME, Microsome
[6] = Antiproliferative activity against human SN40R2 cells derivative of SJSA-1 cells expressing mutant TP53 incubated for 72 hrs by Sulforhodamine B assay; format: functional
[7] = Plasma protein binding in BALB/c mouse incubated for 48 hrs; format: ADME, cell-free; settings: read-out: PPB (converted)
[8] = Plasma protein binding in human incubated for 48 hrs; format: ADME, cell-free; settings: read-out: PPB (converted)
[9] = Metabolic stability in CD1 mouse liver microsomes assessed as half life at 1 uM; format: ADME, Microsome
[10] = Metabolic stability in human liver microsomes assessed as half life at 1 uM; format: ADME, Microsome
[11] = biological target: T1, CYP3A4 (Homo sapiens, UniProt P08684); assay: Inhibition of human CYP3A4 expressed in human supersomes assessed as half life in presence of NADPH at 1 uM using midazolam as substrate measured after 40 mins; format: ADME; settings: supersomes expressing human CYP3A4, probe midazolam
[12] = Plasma clearance in BALB/c mouse at 5 mg/kg, po by HPLC analysis; format: ADME, organism-based
[13] = Oral bioavailability in BALB/c mouse at 5 mg/kg by HPLC analysis; format: ADME, organism-based; settings: in vivo
[14] = Drug metabolism in mouse liver microsomes assessed as metabolite rac-1-(((2-(4-chlorobenzyl)-1-(4-chlorophenyl)-5-(2-hydroxypropan-2-yl)-3-oxoisoindolin-1-yl)oxy)methyl)cyclopropane-1-carboxylic acid formation at 10 uM measured up to 40 mins by LC-MS analysis; format: ADME, Microsome
[15] = Drug metabolism in mouse liver microsomes assessed as retention time of compound at 10 uM by LC-MS analysis; format: ADME, Microsome
[16] = Drug metabolism in mouse liver microsomes assessed as retention time of metabolite aryl-iminium ion at 10 uM by LC-MS analysis; format: ADME, Microsome
[17] = In vivo clearance in nonhuman primate at 0.2 mg/kg, iv by HPLC analysis; format: ADME, organism-based; settings: primates
[18] = Oral bioavailability in nonhuman primate at 5 mg/kg by HPLC analysis; format: ADME, organism-based; settings: primates, in vivo
[19] = biological target: T1, CYP3A4; assay: Inhibition of CYP3A4 (unknown origin) using midazolam as substrate in presence of NADPH at 8 uM; format: ADME; settings: probe midazolam
[20] = Antiproliferative activity against human SN40R2 cells derivative of SJSA-1 cells expressing mutant TP53 at 30 uM incubated for 72 hrs by Sulforhodamine B assay; format: functional
[21] = test system: SJSA-1; assay: Antitumor activity in human SJSA-1 cells […] CD-1 mouse xenograft model assessed as increase in p53 expression in tumor at 50 mg/kg, po single dose measured after 3 hrs by MSD analysis relative to control; format: functional
[22] = test system: SJSA-1; assay: Antitumor activity in human SJSA-1 cells […] CD-1 mouse xenograft model assessed as increase in p53 expression in tumor at 50 mg/kg, po single dose measured after 6 hrs by MSD analysis relative to control; format: functional
[23] = test system: SJSA-1; assay: Antitumor activity in human SJSA-1 cells […] CD-1 mouse xenograft model assessed as inhibition of tumor growth at 50 mg/kg, po single dose for 7 days relative to control; format: functional; settings: time 7 day
[24] = Toxicity in CD-1 mouse xenografted human SJSA-1 cells assessed as change in body weight at 50 mg/kg, po single dose for 7 days relative to control; format: organism-based; settings: in vivo, 168 h, time 7 day
[25] = Toxicity in CD-1 mouse xenografted human SJSA-1 cells assessed as adverse effect at 50 mg/kg, po single dose for 7 days relative to control; format: organism-based; settings: in vivo, 168 h, time 7 day

T1 sequence (P08684 whole entry): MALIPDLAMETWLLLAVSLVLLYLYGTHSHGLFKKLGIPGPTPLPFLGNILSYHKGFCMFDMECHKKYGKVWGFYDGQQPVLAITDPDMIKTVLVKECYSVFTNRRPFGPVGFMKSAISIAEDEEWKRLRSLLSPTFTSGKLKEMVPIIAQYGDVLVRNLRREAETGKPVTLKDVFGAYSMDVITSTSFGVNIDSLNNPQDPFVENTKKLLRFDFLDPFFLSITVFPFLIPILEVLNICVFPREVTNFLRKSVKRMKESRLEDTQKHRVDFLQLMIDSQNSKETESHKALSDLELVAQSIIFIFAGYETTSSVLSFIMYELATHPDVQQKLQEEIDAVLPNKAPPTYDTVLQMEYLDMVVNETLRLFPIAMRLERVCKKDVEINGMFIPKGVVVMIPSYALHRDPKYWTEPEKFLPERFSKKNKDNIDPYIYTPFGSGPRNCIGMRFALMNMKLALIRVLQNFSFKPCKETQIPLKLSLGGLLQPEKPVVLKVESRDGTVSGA

| Compound | IC50 [1] | GI50 [2] | chromatographic logD [4] | fraction unbound at 48 h [7] | fraction unbound at 48 h [8] | half-life at 1 µM [9] | half-life at 1 µM [10] | half-life at 1 µM [11] | CL/F [12] | bioavailability [13] | other results |
| --- | --- | --- | --- | --- | --- | --- | --- | --- | --- | --- | --- |
| [2H]C([2H])(O)C1(C([2H])([2H])O[C@]2(c3ccc(Cl)cc3)c3c(F)cc(C(C)(C)O)cc3C(=O)N2Cc2ncc(C#N)cn2)CC1 | 3.1 nM | 260 nM | 3.9 | – | – | – | – | – | – | – | Activity [3]: 19% |
| CC(C)(O)c1ccc2c(c1)C(=O)N(Cc1ccc(Cl)cc1)[C@@]2(OCC1(CO)CC1)c1ccc(Cl)cc1 | – | – | – | 0.001 | 0.002 | < 5 min | 9.5 min | < 5 min | 25 mL/min/kg | 6.5% | Retention_time [5]: 2.12 min; GI50 [6]: 18000 nM; Drug metabolism [14]: Metabolite_Detected; Retention_time [15]: 2.3 min; Retention_time [16]: 2.13 min |
| [2H]C([2H])(O)C1(C([2H])([2H])O[C@]2(c3ccc(Cl)cc3)c3c(F)cc(C(C)(C)O)cc3C(=O)N2Cc2ccc(C#N)cn2)CC1 | 3.8 nM | 200 nM | 3.8 | 0.094 | 0.086 | 27 min | 52 min | 14 min | 11 mL/min/kg | 46% | clearance [17]: 11 mL/min/kg; bioavailability [18]: 31%; inhibition at 8 µM [19]: 46%; Activity [20]: 20%; fold change (FC) [21]: 3.7; fold change (FC) [22]: 10.3; T/C [23]: 21%; Activity [24]: Non-Toxic; Activity [25]: Non-Toxic |
